Patent publication US20110207800A1, “HIV-Dependent expression constructs and uses therefore” (priority 2008, published 2011)

Columns and labels:
α-hemolysin = α-hemolysin (Staphylococcus aureus, UniProt P09616); assay type: cell-based
[1] = tested on: HIV-1-positive J1.1 cell line; assay type: cell-based
AnlO = assay type: cell-based, Bacillus anthracis
healthy macrophages = assay type: cell-based, human

Chain of α-hemolysin (P09616 27-319 limits assumed): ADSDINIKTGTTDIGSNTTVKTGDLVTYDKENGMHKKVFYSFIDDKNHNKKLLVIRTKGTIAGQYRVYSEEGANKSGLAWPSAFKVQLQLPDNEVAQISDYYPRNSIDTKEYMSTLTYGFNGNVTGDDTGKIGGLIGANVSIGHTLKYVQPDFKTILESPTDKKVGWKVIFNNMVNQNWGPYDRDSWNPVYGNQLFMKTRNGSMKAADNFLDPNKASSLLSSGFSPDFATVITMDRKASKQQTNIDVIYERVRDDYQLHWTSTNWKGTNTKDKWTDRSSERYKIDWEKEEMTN

Compound	number of GFP positive cells (α-hemolysin)	infectivity of virus generated in the presence of the compound [1]	change of GFP-positive cell population (inhibition of cytolysis by anlO) (AnlO)	cytolysis, share of the cells (healthy macrophages) [%]	time to detection of cytolysis (healthy macrophages; 500 ng/ml) [days]
6-boc orthinine amide-β-cyclodextrin [6-BOCD]	did not increase	no difference in infectivity	doubling		
COc1ccc(C[C@H](N)C(=O)N[C@H]2[C@@H](O)[C@H](n3cnc4c(N(C)C)ncnc43)O[C@@H]2CO)cc1 [puromycin]				25	≤ 2
